# Test results taken from US20260053812A1, “METHODS OF TREATING HYPERTENSION WITH A COMBINATION OF AN ALDOSTERONE SYNTHASE INHIBITOR AND A DIURETIC” (Mineralys Therapeutics, Inc., priority 2022, published 2026).
# Assay: Adverse events (TEAEs, SAEs, AESI; Safety Analysis Set)
# Description: In analyses performed on the Safety Analysis Set, subjects will be analyzed according to their actual treatment received.
compound,measurement,setting,value
CC(=O)N[C@H]1CC[C@H](NC(=O)CN2CCN(c3nncc(-c4ccc(C)cc4)n3)CC2)CC1 [Compound A HBr],"On-treatment TEAE, Hyperkalaemia, Mild, %","Part 1, 100 mg QD (N = 30)",(26.7) %
same,"On-treatment TEAE, Infections and infestations, %","Part 1, 100 mg QD (N = 30)",(6.7) %
same,"On-treatment TEAE, Infections and infestations, Moderate, %","Part 1, 100 mg QD (N = 30)",(6.7) %
same,"On-treatment TEAE, Investigations, %","Part 1, 100 mg QD (N = 30)",(26.7) %
same,"On-treatment TEAE, Investigations, Mild, %","Part 1, 100 mg QD (N = 30)",(20.0) %
same,"On-treatment TEAE, Investigations, Moderate, %","Part 1, 100 mg QD (N = 30)",(6.7) %
same,"On-treatment TEAE, Metabolism and nutrition disorders, %","Part 1, 100 mg QD (N = 30)",(26.7) %
same,"On-treatment TEAE, Metabolism and nutrition disorders, Mild, %","Part 1, 100 mg QD (N = 30)",(26.7) %
same,"On-treatment TEAE, Psychiatric disorders, %","Part 1, 100 mg QD (N = 30)",(6.7) %
same,"On-treatment TEAE, Psychiatric disorders, Moderate, %","Part 1, 100 mg QD (N = 30)",(6.7) %
same,"On-treatment TEAE, Urinary tract infection, %","Part 1, 100 mg QD (N = 30)",(3.3) %
same,"On-treatment TEAE, Vascular disorders, %","Part 1, 100 mg QD (N = 30)",(3.3) %
same,"On-treatment TEAE, Vascular disorders, Moderate, %","Part 1, 100 mg QD (N = 30)",(3.3) %
same,"Subjects with any On-treatment TEAEs leading to withdrawal from study drug, %","Part 1, 100 mg QD (N = 30)",(13.3) %
same,"Subjects with any On-treatment TEAEs, Mild, %","Part 1, 100 mg QD (N = 30)",(30.0) %
same,"Subjects with any On-treatment TEAEs, Moderate, %","Part 1, 100 mg QD (N = 30)",(23.3) %
same,"TEAE leading to permanent discontinuation from study drug, Activated partial thromboplastin time prolonged, %","Part 1, 100 mg QD (N = 30)",(3.3) %
same,"TEAE leading to permanent discontinuation from study drug, Hyperkalaemia, %","Part 1, 100 mg QD (N = 30)",(6.7) %
same,"TEAE leading to permanent discontinuation from study drug, Hypotension, %","Part 1, 100 mg QD (N = 30)",(3.3) %
same,"TEAE leading to permanent discontinuation from study drug, Investigations, %","Part 1, 100 mg QD (N = 30)",(3.3) %
same,"TEAE leading to permanent discontinuation from study drug, Metabolism and nutrition disorders, %","Part 1, 100 mg QD (N = 30)",(6.7) %
same,"TEAE leading to permanent discontinuation from study drug, Vascular disorders, %","Part 1, 100 mg QD (N = 30)",(3.3) %
same,"On-treatment TEAE, Blood and lymphatic system disorders, %","Part 1, Active (N = 133)",(1.5) %
same,"On-treatment TEAE, Blood and lymphatic system disorders, Mild, %","Part 1, Active (N = 133)",(1.5) %
same,"On-treatment TEAE, Blood creatinine increased, %","Part 1, Active (N = 133)",(2.3) %
same,"On-treatment TEAE, Blood creatinine increased, Mild, %","Part 1, Active (N = 133)",(2.3) %
same,"On-treatment TEAE, Cardiac disorders, %","Part 1, Active (N = 133)",(3.0) %
same,"On-treatment TEAE, Cortisol decreased, %","Part 1, Active (N = 133)",(2.3) %
same,"On-treatment TEAE, Cortisol decreased, Mild, %","Part 1, Active (N = 133)",(2.3) %
same,"On-treatment TEAE, Dizziness, %","Part 1, Active (N = 133)",(2.3) %
same,"On-treatment TEAE, Gastrointestinal disorders, %","Part 1, Active (N = 133)",(4.5) %
same,"On-treatment TEAE, Gastrointestinal disorders, Mild, %","Part 1, Active (N = 133)",(3.8) %
same,"On-treatment TEAE, General disorders and administration site conditions, %","Part 1, Active (N = 133)",(3.8) %
same,"On-treatment TEAE, General disorders and administration site conditions, Mild, %","Part 1, Active (N = 133)",(1.5) %
same,"On-treatment TEAE, Glomerular filtration rate decreased, %","Part 1, Active (N = 133)",(6.8) %
same,"On-treatment TEAE, Glomerular filtration rate decreased, Mild, %","Part 1, Active (N = 133)",(6.0) %
same,"On-treatment TEAE, Headache, %","Part 1, Active (N = 133)",(2.3) %
same,"On-treatment TEAE, Headache, Mild, %","Part 1, Active (N = 133)",(2.3) %
same,"On-treatment TEAE, Hyperkalaemia, %","Part 1, Active (N = 133)",(23.3) %
same,"On-treatment TEAE, Hyperkalaemia, Mild, %","Part 1, Active (N = 133)",(19.5) %
same,"On-treatment TEAE, Hyperkalaemia, Moderate, %","Part 1, Active (N = 133)",(3.0) %
same,"On-treatment TEAE, Hyperkalaemia, Severe, %","Part 1, Active (N = 133)",(0.8) %
same,"On-treatment TEAE, Hypertension, %","Part 1, Active (N = 133)",(3.8) %
same,"On-treatment TEAE, Hypertension, Moderate, %","Part 1, Active (N = 133)",(2.3) %
same,"On-treatment TEAE, Infections and infestations, %","Part 1, Active (N = 133)",(8.3) %
same,"On-treatment TEAE, Infections and infestations, Mild, %","Part 1, Active (N = 133)",(3.8) %
same,"On-treatment TEAE, Infections and infestations, Moderate, %","Part 1, Active (N = 133)",(4.5) %
same,"On-treatment TEAE, Investigations, %","Part 1, Active (N = 133)",(15.8) %
same,"On-treatment TEAE, Investigations, Mild, %","Part 1, Active (N = 133)",(12.8) %
same,"On-treatment TEAE, Investigations, Moderate, %","Part 1, Active (N = 133)",(3.0) %
same,"On-treatment TEAE, Metabolism and nutrition disorders, %","Part 1, Active (N = 133)",(25.6) %
same,"On-treatment TEAE, Metabolism and nutrition disorders, Mild, %","Part 1, Active (N = 133)",(21.8) %
same,"On-treatment TEAE, Metabolism and nutrition disorders, Moderate, %","Part 1, Active (N = 133)",(3.0) %
same,"On-treatment TEAE, Nervous system disorders, %","Part 1, Active (N = 133)",(6.0) %
same,"On-treatment TEAE, Nervous system disorders, Mild, %","Part 1, Active (N = 133)",(4.5) %
same,"On-treatment TEAE, Orthostatic hypotension, %","Part 1, Active (N = 133)",(2.3) %
same,"On-treatment TEAE, Orthostatic hypotension, Mild, %","Part 1, Active (N = 133)",(2.3) %
same,"On-treatment TEAE, Psychiatric disorders, %","Part 1, Active (N = 133)",(2.3) %
same,"On-treatment TEAE, Psychiatric disorders, Moderate, %","Part 1, Active (N = 133)",(2.3) %
same,"On-treatment TEAE, Urinary tract infection, %","Part 1, Active (N = 133)",(5.3) %
same,"On-treatment TEAE, Urinary tract infection, Mild, %","Part 1, Active (N = 133)",(3.0) %
same,"On-treatment TEAE, Vascular disorders, %","Part 1, Active (N = 133)",(6.8) %
same,"On-treatment TEAE, Vascular disorders, Mild, %","Part 1, Active (N = 133)",(3.8) %
same,"On-treatment TEAE, Vascular disorders, Moderate, %","Part 1, Active (N = 133)",(3.0) %
same,"Subjects with any On-treatment TEAEs leading to withdrawal from study drug, %","Part 1, Active (N = 133)",(7.5) %
same,"Subjects with any On-treatment TEAEs, Mild, %","Part 1, Active (N = 133)",(35.3) %
same,"Subjects with any On-treatment TEAEs, Moderate, %","Part 1, Active (N = 133)",(18.8) %
same,"Subjects with any On-treatment TEAEs, Severe, %","Part 1, Active (N = 133)",(0.8) %
same,"TEAE leading to permanent discontinuation from study drug, Activated partial thromboplastin time prolonged, %","Part 1, Active (N = 133)",(0.8) %
same,"TEAE leading to permanent discontinuation from study drug, Cardiac disorders, %","Part 1, Active (N = 133)",(0.8) %
same,"TEAE leading to permanent discontinuation from study drug, Coronary artery disease, %","Part 1, Active (N = 133)",(0.8) %
same,"TEAE leading to permanent discontinuation from study drug, Dizziness, %","Part 1, Active (N = 133)",(0.8) %
same,"TEAE leading to permanent discontinuation from study drug, Hyperkalaemia, %","Part 1, Active (N = 133)",(3.8) %
same,"TEAE leading to permanent discontinuation from study drug, Hypertension, %","Part 1, Active (N = 133)",(0.8) %
same,"TEAE leading to permanent discontinuation from study drug, Hypotension, %","Part 1, Active (N = 133)",(0.8) %
same,"TEAE leading to permanent discontinuation from study drug, Investigations, %","Part 1, Active (N = 133)",(0.8) %
same,"TEAE leading to permanent discontinuation from study drug, Metabolism and nutrition disorders, %","Part 1, Active (N = 133)",(3.8) %
same,"TEAE leading to permanent discontinuation from study drug, Nervous system disorders, %","Part 1, Active (N = 133)",(0.8) %
same,"TEAE leading to permanent discontinuation from study drug, Orthostatic hypotension, %","Part 1, Active (N = 133)",(0.8) %
